From US5789384A, “Pharmaceutical dipeptide compositions and methods of use thereof” (priority 1995, dated 1998)

Settings: in vivo

CC[C@H](C)[C@H](N)C(=O)N[C@@H](Cc1c[nH]c2ccccc12)C(=O)O [Ile-Trp, L-Ile-L-Trp]
side effects from the use of the dipeptide: not found any significant side effects
